In paper PMC10379611 (International Journal of Molecular Sciences, 2023):
“Also recorded” adds a separate entry of the source. Read-outs that look alike come from different tables or passages of the source.

Experiments:
OATP1B1 = biological target: T1, OATP1B1 (Homo sapiens, UniProt Q9Y6L6); assay: OATP1B1 uptake assay (pyranine) in overexpressing A431 cells
T1 sequence (Q9Y6L6 1-691): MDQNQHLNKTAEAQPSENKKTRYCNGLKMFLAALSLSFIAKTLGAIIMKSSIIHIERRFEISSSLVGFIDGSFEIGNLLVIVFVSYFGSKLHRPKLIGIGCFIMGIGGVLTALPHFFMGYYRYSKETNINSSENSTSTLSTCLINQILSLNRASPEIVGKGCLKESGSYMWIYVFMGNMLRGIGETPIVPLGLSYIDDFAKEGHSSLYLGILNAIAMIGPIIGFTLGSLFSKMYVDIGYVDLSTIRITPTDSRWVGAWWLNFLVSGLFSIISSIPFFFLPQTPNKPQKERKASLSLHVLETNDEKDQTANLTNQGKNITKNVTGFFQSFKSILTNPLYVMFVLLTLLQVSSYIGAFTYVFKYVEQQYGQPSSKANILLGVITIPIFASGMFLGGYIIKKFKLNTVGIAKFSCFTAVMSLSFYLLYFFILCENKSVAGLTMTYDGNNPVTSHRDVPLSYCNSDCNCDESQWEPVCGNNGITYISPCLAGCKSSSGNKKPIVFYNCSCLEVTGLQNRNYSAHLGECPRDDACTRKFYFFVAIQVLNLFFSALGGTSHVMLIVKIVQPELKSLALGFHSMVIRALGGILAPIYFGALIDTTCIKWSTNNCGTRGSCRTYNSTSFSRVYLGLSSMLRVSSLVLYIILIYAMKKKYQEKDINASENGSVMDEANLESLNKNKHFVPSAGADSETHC

OATP1B3 = biological target: T2, OATP1B3 (Homo sapiens, UniProt Q9NPD5); assay: OATP1B3 uptake assay (pyranine) in overexpressing A431 cells
T2 sequence (Q9NPD5 1-702): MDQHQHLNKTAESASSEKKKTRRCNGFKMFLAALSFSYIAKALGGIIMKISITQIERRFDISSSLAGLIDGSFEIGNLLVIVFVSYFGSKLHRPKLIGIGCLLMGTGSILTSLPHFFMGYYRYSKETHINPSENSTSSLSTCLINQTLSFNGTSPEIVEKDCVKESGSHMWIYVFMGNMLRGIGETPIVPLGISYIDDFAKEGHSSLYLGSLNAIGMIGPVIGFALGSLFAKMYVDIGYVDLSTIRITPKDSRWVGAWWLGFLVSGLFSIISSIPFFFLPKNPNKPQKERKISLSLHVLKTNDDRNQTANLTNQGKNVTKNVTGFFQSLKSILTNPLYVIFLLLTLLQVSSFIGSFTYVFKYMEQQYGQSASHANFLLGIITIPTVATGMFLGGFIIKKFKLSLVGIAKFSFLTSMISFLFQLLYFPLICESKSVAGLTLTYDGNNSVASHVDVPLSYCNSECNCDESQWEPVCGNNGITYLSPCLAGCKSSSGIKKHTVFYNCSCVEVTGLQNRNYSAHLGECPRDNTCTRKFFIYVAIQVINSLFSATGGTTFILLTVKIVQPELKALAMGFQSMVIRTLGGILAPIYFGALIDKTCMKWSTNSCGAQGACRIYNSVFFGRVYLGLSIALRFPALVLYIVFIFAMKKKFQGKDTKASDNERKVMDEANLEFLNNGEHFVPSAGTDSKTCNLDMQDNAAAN

ABCB1 = ABCB1 (Homo sapiens, UniProt P08183); assay: ABCB1 vesicular transport (NMQ), HEK293 inverted membrane vesicles; settings: for effect on ABCB1 NMQ vesicular transport: up to 200 μM
ABCG2 = biological target: T3, ABCG2 (Homo sapiens, UniProt Q9UNQ0); assay: ABCG2 vesicular transport (lucifer yellow), HEK293 inverted membrane vesicles; settings: up to 200 μM
T3 sequence (Q9UNQ0 1-655): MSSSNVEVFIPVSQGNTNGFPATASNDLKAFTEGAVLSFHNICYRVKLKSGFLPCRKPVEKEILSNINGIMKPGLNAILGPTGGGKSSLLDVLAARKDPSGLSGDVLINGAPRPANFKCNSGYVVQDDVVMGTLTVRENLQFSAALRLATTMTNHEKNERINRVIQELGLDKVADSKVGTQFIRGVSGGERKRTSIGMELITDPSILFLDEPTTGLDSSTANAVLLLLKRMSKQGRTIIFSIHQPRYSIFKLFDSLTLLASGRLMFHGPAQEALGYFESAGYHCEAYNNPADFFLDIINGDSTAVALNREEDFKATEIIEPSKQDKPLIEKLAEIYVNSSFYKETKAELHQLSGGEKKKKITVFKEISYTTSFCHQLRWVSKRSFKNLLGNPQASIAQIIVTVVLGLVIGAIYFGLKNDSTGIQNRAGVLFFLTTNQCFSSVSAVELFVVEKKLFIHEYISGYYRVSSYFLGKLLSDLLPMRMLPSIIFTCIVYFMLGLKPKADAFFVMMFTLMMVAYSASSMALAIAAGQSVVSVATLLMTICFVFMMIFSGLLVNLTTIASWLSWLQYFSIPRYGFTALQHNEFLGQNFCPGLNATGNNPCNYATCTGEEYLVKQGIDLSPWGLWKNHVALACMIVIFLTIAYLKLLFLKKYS
Description: ABCB1, ABCG2, and ABCC4 HEK293 membrane vesicles were prepared by Solvo Biotechnology, Budapest. The total protein content of membrane vesicle preparations was determined using the Lowry quantitation method and 30 µg (ABCG2) or 50 µg (ABCB1 and ABCC4) total protein/sample was used for the measurements. For ABCG2 vesicular transport, the fluorescent probe Lucifer yellow (LY) was present in the mixture at 5 μM final concentration. […] Uptake of the probe substrates into the inverted membrane vesicles was measured at 37 °C (ABCG2, ABCB1) or at 32 °C (ABCC4) for 10 min (ABCG2), 5 min (ABCB1), or 1.5 min (ABCC4) in the presence or absence of 4 mM Mg-ATP, in 75 μL final volume of the media (0.04 M MOPS-TRIS pH 7.2, 56 mM KCl, 6 mM MgCl2). The known reference inhibitors of the transporters (1 µM Ko143 for ABCG2, 50 µM Verapamil for ABCB1, and 150 µM MK571 for ABCC4) served as controls. Each test compound was dissolved in DMSO and a 0.75 µL volume was added to the samples. A DMSO solvent control was used in each experiment. The transport was stopped by the addition of ice-cold wash buffer to the samples, then rapidly filtered (MSFBN6B, Millipore, Burlington, MA, USA). Filters were washed with ice-cold wash buffer (0.04 M MOPS-TRIS pH 7.2, 70 mM KCl). For LY, vesicles retained on the filters were dissolved in 10% SDS and transferred into a 96-well microplate. After the addition of DMSO as a stabilizer, fluorescence was measured using a plate reader at 427/535 nm (Victor X3 Enspire Perkin-Elmer, Waltham, MA, USA). When radiolabeled compounds were used as substrates, radioactivity retained on the filter was measured by liquid scintillation counting in Optiphase HiSafe liquid (Perkin Elmer MicroBeta2 liquid scintillation counter, Perkin Elmer, Waltham, MA, USA). ATP-dependent transport was calculated by subtracting the values obtained in the presence of AMP from those obtained in the presence of ATP.

ABCB1, sequence (P08183 whole entry): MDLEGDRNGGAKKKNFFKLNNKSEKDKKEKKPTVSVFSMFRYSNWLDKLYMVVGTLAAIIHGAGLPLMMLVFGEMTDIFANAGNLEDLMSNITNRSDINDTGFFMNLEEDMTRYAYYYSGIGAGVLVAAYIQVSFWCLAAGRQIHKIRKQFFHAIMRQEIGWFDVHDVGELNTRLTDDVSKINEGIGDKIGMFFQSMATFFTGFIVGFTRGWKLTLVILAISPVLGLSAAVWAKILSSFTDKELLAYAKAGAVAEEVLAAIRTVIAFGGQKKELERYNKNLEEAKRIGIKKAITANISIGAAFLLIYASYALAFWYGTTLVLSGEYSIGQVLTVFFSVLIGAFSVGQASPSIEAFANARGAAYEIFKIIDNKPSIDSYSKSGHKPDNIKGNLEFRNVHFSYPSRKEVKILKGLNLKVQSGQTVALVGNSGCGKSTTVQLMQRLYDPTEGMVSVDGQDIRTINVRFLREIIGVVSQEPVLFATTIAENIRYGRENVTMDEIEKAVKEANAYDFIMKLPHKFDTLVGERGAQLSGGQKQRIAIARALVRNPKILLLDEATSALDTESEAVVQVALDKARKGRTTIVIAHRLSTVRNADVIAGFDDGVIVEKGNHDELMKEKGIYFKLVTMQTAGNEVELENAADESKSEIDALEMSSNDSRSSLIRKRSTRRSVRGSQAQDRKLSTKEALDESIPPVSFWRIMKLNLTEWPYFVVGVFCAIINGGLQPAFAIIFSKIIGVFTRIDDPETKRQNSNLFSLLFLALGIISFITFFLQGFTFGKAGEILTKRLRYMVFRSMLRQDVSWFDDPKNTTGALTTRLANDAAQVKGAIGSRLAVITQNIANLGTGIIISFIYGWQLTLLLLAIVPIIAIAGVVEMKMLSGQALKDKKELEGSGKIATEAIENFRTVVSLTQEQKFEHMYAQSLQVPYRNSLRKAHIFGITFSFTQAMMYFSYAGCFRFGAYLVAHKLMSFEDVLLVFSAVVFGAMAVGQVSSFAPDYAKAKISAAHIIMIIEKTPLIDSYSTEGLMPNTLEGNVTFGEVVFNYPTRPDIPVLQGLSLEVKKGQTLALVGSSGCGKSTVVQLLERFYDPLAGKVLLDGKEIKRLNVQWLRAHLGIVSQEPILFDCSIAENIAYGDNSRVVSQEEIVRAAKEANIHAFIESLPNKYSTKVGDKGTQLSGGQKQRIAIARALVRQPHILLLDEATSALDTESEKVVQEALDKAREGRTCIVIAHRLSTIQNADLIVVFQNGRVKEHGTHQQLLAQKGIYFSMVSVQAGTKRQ

| Compound | maximum inhibition of OATP1B1 (OATP1B1; at 200 μM, pyranine) | IC50 (OATP1B1; read-out: estimated IC50, OATP1B1, pyranine substrate, A431 cells) [µM] | maximum inhibition of OATP1B3 (OATP1B3; at 200 μM, pyranine) | IC50 (OATP1B3; read-out: estimated IC50, OATP1B3, pyranine substrate, A431 cells) [µM] | effect on ABCB1 NMQ vesicular transport (ABCB1) | effect on ABCG2 lucifer yellow vesicular transport (ABCG2) | IC50 (OATP1B1) [µM] | inhibition at 10 min, 200 µM (OATP1B1; human, A431 cells overexpressing OATP1B1, pH 7.4, probe pyranine (20 μM)) [%] | IC50 (OATP1B3) [µM] | inhibition at 10 min, 200 µM (OATP1B3; human, A431 cells overexpressing OATP1B3, pH 7.4, probe pyranine (20 μM)) [%] | inhibition of OATP1B1 by Nirmatrelvir alone (OATP1B1; at 20 μM) | inhibition of OATP1B3 by Nirmatrelvir alone (OATP1B3; at 20 μM) | additional effect of Nirmatrelvir on ABCB1 inhibition by Ritonavir (ABCB1; NIR in combination with RIT) |
| --- | --- | --- | --- | --- | --- | --- | --- | --- | --- | --- | --- | --- | --- |
| O=c1nc(NO)ccn1[C@@H]1O[C@H](CO)[C@@H](O)[C@H]1O [EIDD-1931] | 20–40% | > 200 | 20–40% | > 200 | neither the function of ABCB1 nor that of ABCG2 was altered | neither the function of ABCB1 nor that of ABCG2 was altered |  |  |  |  |  |  |  |
| CC(C)C(=O)OC[C@H]1O[C@@H](n2ccc(NO)nc2=O)[C@H](O)[C@@H]1O [EIDD-2801, Molnupiravir] |  |  |  |  | neither the function of ABCB1 nor that of ABCG2 was altered | neither the function of ABCB1 nor that of ABCG2 was altered | > 200 | 20 to 40 | > 200 | 20 to 40 |  |  |  |
| CC(C)(C)[C@H](NC(=O)C(F)(F)F)C(=O)N1C[C@H]2[C@@H]([C@H]1C(=O)N[C@H](C#N)C[C@@H]1CCNC1=O)C2(C)C [Nirmatrelvir] |  |  |  |  | moderate inhibitory effect; also recorded: only a weak inhibitory effect | not affected; also recorded: negligible effect |  |  |  |  | only a minor inhibitory effect | only a minor inhibitory effect | no additional effect |
